Measurements reported in patent US20260345621A1, “GABAA RECEPTOR MODULATORS AND USES THEREOF” (Engrail Therapeutics, Inc., priority 2022, published 2026).
Entries after “also recorded” stand apart in the source; their conditions may differ. Like-named read-outs stand apart in the source and are kept apart here.

How the values were obtained:
[1] = Multiple ascending dose study, plasma pharmacokinetics; type: in vivo, human (healthy volunteers); settings: for AUC(0-t) at 24 h / Cmax at 24 h / Tmax at 24 h: Day 1; for AUC tau / Cmax at 288 h / half-life / Tmax at 288 h: Day 12
Experimental: A clinical study was developed to evaluate safety, tolerability, pharmacokinetics, and pharmacodynamics of Compound 1 at plasma steady-state in 40 healthy human volunteers. Compound 1 (provided as Compound 1 phosphate) was administered to participants as multiple ascending doses of 0.5 mg (N=6), 1.0 mg (N=6), 1.5 mg (N=6), 2.0 mg (N=6), or 5.0 mg (N=6) once daily (QD) for 12 days.
Blood samples were collected, and plasma concentrations were measured using a validated high performance liquid chromatography/liquid chromatography-mass spectrometry/mass spectrometry method. The PK parameters assessed included Cmax, Tmax, AUC from administration to the end of dosing (AUC0-t), AUC0-24, AUC0-inf, t1/2, terminal rate constant (λz), apparent total clearance of the drug from plasma (CL/F), and apparent volume of distribution during terminal phase after non-intravenous administration (Vz/F).
The plasma concentration data for Compound 1 were summarized by dose level and the planned sampling time points using descriptive statistics (n, SD, median, minimum, maximum, geometric mean, and coefficient of variance (CV %) for the geometric mean) for the PK Analysis Set.
Specifically, samples for PK analyses were taken on Day 1 and Day 12 pre-dose, 0.5, 1, 1.5, 3, 6, 8, 10, and 12 h post-dose, with additional samples taken on every dosing Day (24 hours after the previous day's dose) and 24, 72, 168, and 336 h after last dosing on Day 12. All individual Compound 1 concentrations were above the LLOQ of 0.0500 ng/mL at 0.5 h post-dose, except for 1 participant, for whom the concentration was above the LLOQ at 1 h post-dose.

[2] = target: human GABAA receptor α1/β3/γ2 (Homo sapiens, UniProt P14867+P18507); experiment: SyncroPatch platform, PAM mode, GABAA α1/β3/γ2
[3] = human, plasma, po, 1.5 mg, 1.5 mg oral QD, read-out: Cmax (mean)
[4] = human, plasma, po, 1.5 mg, 1.5 mg oral QD, read-out: Cmax (median)
[5] = human, plasma, po, 2 mg, 2.0 mg oral QD, read-out: Cmax (mean)
[6] = human, plasma, po, 2 mg, 2.0 mg oral QD, read-out: Cmax (median)
[7] = human, plasma, po, 5 mg, 5.0 mg oral QD, read-out: Cmax (mean)
[8] = human, plasma, po, 5 mg, 5.0 mg oral QD, read-out: Cmax (median)
[9] = human, plasma, 0.5 mg oral QD, read-out: Tmax (median)
[10] = human, plasma, 1.0 mg oral QD, read-out: Tmax (median)
[11] = human, plasma, 1.5 mg oral QD, read-out: Tmax (median)
[12] = human, plasma, 2.0 mg oral QD, read-out: Tmax (median)
[13] = human, plasma, 5.0 mg oral QD, read-out: Tmax (median)

human GABAA receptor α1/β3/γ2, sequence (P14867 28-456): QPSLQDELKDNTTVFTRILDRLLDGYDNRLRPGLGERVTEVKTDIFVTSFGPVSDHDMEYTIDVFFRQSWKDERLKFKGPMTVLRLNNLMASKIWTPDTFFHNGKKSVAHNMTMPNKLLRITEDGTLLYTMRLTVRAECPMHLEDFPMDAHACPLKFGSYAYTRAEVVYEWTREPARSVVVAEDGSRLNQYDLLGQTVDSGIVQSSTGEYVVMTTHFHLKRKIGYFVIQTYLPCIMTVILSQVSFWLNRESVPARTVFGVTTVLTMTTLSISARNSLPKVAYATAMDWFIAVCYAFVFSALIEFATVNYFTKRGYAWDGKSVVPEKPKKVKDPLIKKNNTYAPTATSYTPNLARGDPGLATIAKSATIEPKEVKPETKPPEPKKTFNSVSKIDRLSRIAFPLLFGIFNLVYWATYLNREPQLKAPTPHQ
human GABAA receptor α1/β3/γ2, sequence (P18507 40-475): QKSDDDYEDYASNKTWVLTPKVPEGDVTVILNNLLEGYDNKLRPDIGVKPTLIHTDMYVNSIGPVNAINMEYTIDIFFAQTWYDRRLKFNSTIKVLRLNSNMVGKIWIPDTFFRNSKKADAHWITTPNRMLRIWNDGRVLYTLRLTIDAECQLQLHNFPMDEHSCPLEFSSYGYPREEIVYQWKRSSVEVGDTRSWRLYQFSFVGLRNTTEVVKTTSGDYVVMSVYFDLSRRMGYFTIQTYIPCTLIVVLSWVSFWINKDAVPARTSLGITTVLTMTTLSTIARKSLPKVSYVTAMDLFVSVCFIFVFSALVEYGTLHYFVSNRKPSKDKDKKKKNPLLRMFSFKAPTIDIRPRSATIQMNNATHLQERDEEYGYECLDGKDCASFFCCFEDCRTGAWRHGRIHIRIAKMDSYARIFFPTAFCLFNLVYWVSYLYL
human GABAA receptor α1/β3/γ2, sequence (P28472 26-473 partner): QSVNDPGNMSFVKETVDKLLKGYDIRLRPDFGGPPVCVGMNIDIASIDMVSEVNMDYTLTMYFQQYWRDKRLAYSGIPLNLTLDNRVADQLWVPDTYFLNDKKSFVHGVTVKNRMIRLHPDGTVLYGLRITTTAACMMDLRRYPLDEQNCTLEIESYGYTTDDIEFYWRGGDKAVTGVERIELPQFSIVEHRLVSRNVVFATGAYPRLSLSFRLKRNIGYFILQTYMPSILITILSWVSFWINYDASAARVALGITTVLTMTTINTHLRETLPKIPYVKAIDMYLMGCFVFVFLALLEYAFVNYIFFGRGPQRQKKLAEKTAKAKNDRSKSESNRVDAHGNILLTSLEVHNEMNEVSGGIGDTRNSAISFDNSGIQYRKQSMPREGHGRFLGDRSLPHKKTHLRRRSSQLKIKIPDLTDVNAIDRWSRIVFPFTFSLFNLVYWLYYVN

SMILES: CC(C)(O)c1cnn2c(-c3ccc(F)c(-c4c(F)cccc4C#N)c3)cnc2n1 [Compound 1, 2′,6-difluoro-5′-(3-(2-hydroxypropan-2-yl)imidazo[1,2-b][1,2,4]triazin-7-yl)-[1,1′-biphenyl]-2-carbonitrile]
- AUC(0-t) at 24 h ([1]; human, plasma, po, 1.5 mg, 1.5 mg oral QD, read-out: AUC0-24 (median)): 227 ng·h/mL
- Cmax at 24 h [1, 3]: 18.8 ± 7 ng/mL
- Cmax at 24 h [1, 4]: 18.2 ng/mL
- AUC tau ([1]; human, plasma, po, 1.5 mg, 1.5 mg oral QD, read-out: AUCtau (mean)): 706 ± 84 ng·h/mL
- AUC tau ([1]; human, plasma, po, 1.5 mg, 1.5 mg oral QD, read-out: AUCtau (median)): 738 ng·h/mL
- Cmax at 288 h [1, 3]: 41.7 ± 5 ng/mL
- Cmax at 288 h [1, 4]: 42.6 ng/mL
- half-life ([1]; human, plasma, po, 1.5 mg, 1.5 mg oral QD, read-out: t1/2 (mean) (converted)): 51 ± 18 h
- half-life ([1]; human, plasma, po, 1.5 mg, 1.5 mg oral QD, read-out: t1/2 (median) (converted)): 49.1 h
- AUC(0-t) at 24 h ([1]; human, plasma, po, 2 mg, 2.0 mg oral QD, read-out: AUC0-24 (mean)): 244 ± 48 ng·h/mL
- AUC(0-t) at 24 h ([1]; human, plasma, po, 2 mg, 2.0 mg oral QD, read-out: AUC0-24 (median)): 226 ng·h/mL
- Cmax at 24 h [1, 5]: 19.6 ± 4 ng/mL
- Cmax at 24 h [1, 6]: 19.9 ng/mL
- AUC tau ([1]; human, plasma, po, 2 mg, 2.0 mg oral QD, read-out: AUCtau (mean)): 873 ± 331 ng·h/mL
- AUC tau ([1]; human, plasma, po, 2 mg, 2.0 mg oral QD, read-out: AUCtau (median)): 891 ng·h/mL
- Cmax at 288 h [1, 5]: 49.8 ± 17 ng/mL
- Cmax at 288 h [1, 6]: 48.2 ng/mL
- half-life ([1]; human, plasma, po, 2 mg, 2.0 mg oral QD, read-out: t1/2 (mean) (converted)): 61 ± 26 h
- half-life ([1]; human, plasma, po, 2 mg, 2.0 mg oral QD, read-out: t1/2 (median) (converted)): 52.3 h
- AUC(0-t) at 24 h ([1]; human, plasma, po, 5 mg, 5.0 mg oral QD, read-out: AUC0-24 (mean)): 642 ± 125 ng·h/mL
- AUC(0-t) at 24 h ([1]; human, plasma, po, 5 mg, 5.0 mg oral QD, read-out: AUC0-24 (median)): 609 ng·h/mL
- Cmax at 24 h [1, 7]: 49.7 ± 13 ng/mL
- Cmax at 24 h [1, 8]: 49.5 ng/mL
- AUC(0-t) at 24 h ([1]; human, plasma, po, 5 mg, 5.0 mg oral QD, read-out: highest individual AUC0-24): 853 ng·h/mL
- AUC tau ([1]; human, plasma, po, 5 mg, 5.0 mg oral QD, read-out: AUCtau (mean)): 1800 ng·h/mL
- AUC tau ([1]; human, plasma, po, 5 mg, 5.0 mg oral QD, read-out: AUCtau (median)): 1800 ng·h/mL
- Cmax at 288 h [1, 7]: 99.1 ng/mL
- Cmax at 288 h [1, 8]: 106 ng/mL
- AUC tau ([1]; human, plasma, po, 5 mg, 5.0 mg oral QD, read-out: highest individual AUCtau): 2170 ng·h/mL
- half-life ([1]; human, plasma, po, 5 mg, 5.0 mg oral QD, read-out: t1/2 (mean) (converted)): 39 ± 9 h
- half-life ([1]; human, plasma, po, 5 mg, 5.0 mg oral QD, read-out: t1/2 (median) (converted)): 37.1 h
- concentration at 0.5 h ([1]; human, plasma, po, 0.5 h post-dose, all except 1 participant, read-out: individual plasma concentrations versus LLOQ): > 0.05 ng/mL
- Tmax ([1]; human, plasma, po, Day 1 and Day 12, all doses except 5.0 mg on Day 1, read-out: Tmax (median)): 3 h
- Tmax at 24 h [1, 9]: 3 h
- Tmax at 288 h [1, 9]: 3 h
- Tmax at 24 h [1, 10]: 3 h
- Tmax at 288 h [1, 10]: 3 h
- Tmax at 24 h [1, 11]: 3 h
- Tmax at 288 h [1, 11]: 3 h
- Tmax at 24 h [1, 12]: 3 h
- Tmax at 288 h [1, 12]: 3 h
- Tmax at 24 h [1, 13]: 4.5 h
- Tmax at 288 h [1, 13]: 3 h
- Tmax at 24 h ([1]; human, plasma, up to 2.0 mg oral QD, read-out: Tmax (median)): 3 h
- absorption ([1]; oral): rapidly absorbed
- end of absorption and distribution phase ([1]; plasma, after which elimination phase commenced): approximately 12 h
- concentration decline profile ([1]; plasma, oral QD): bi-exponential decline
- variability in key PK parameters ([1]; up to 5.0 mg repeatedly for 12 days): acceptable
- Cl- flux / activity at α1 subtype [2]: blocking α1; also recorded: did not drive Cl-flux; also recorded: does not potentiate the α1 GABAA receptor subtype
